Source: ChEMBL document CHEMBL1151058, “Synthesis and structure-activity relationships of novel THF 1-methylcarbapenems” (1997)
In brackets after ≈: the same amount, converted by molar mass.

Columns and labels:
Assay type in all cases: functional
Escherichia coli [1] = assay: In vitro minimum inhibitory concentration required against Escherichia coli GC 2205 strain
Citrobacter freundii = assay: In vitro minimum inhibitory concentration required against Citrobacter freundii GC 2211 strain
Staphylococcus aureus [2] = assay: In vitro minimum inhibitory concentration required against Staphylococcus aureus GC 2220 MRSA strain
Pseudomonas aeruginosa [3] = assay: In vitro minimum inhibitory concentration required against Pseudomonas aeruginosa ATCC 27853 strain
Enterococcus faecalis = assay: In vitro minimum inhibitory concentration required against Enterococcus faecalis GC 842 strain
Enterococcus faecium = assay: In vitro minimum inhibitory concentration required against Enterococcus faecium GC 1182 strain
Pseudomonas aeruginosa [4] = assay: In vitro minimum inhibitory concentration required against Pseudomonas aeruginosa GC 1544 oprD- strain
Morganella morganii = assay: In vitro minimum inhibitory concentration required against Morganella morganii GC 2213 strain
[5] = system: Acinetobacter calcoaceticus; assay: In vitro minimum inhibitory concentration required against Acinetobacter calcoaceticus GC 756 strain
Staphylococcus aureus [6] = assay: In vitro minimum inhibitory concentration required against Staphylococcus aureus ATCC 29213 strain
Escherichia coli [7] = assay: In vitro minimum inhibitory concentration required against Escherichia coli GC 1792 strain
Escherichia coli [8] = assay: In vitro minimum inhibitory concentration required against Escherichia coli ATCC 25922 strain
[9] = system: Stenotrophomonas maltophilia; assay: In vitro minimum inhibitory concentration required against Xanthomonas maltophilia GC 562 strain
Enterobacter cloacae = assay: In vitro minimum inhibitory concentration required against Enterobacter cloacae GC 2209 strain
Escherichia coli [10] = assay: Effective single subcutaneous dose required for inhibition of Escherichia coli in mice
Escherichia coli [11] = assay: Effective single oral dose required for inhibition of Escherichia coli in mice
Sus scrofa = species on record: Sus scrofa; assay: Relative hydrolysis was measured by hog renal dehydropeptidase (DHP).
[12] = Enterococcus faecalis, read-out: MIC
[13] = Enterococcus faecium, read-out: MIC
[14] = Acinetobacter calcoaceticus, read-out: MIC
[15] = Escherichia coli, sc, read-out: ED50
[16] = Escherichia coli, po, read-out: ED50

C[C@H]1C(S[C@H]2CO[C@H](CN)C2)=C(C(=O)O)N2C(=O)[C@H]([C@@H](C)O)C12 (some centres undefined)
MIC (Escherichia coli [1]): ≤ 0.06 µg/mL
MIC (Citrobacter freundii): ≤ 0.06 µg/mL
MIC (Staphylococcus aureus [2]): 8 µg/mL (≈ 23.4 µM)
MIC (Pseudomonas aeruginosa [3]): 2 µg/mL (≈ 5.84 µM)
MIC (Enterococcus faecalis; [12]): 2 µg/mL (≈ 5.84 µM)
MIC (Enterococcus faecium; [13]): > 128 µg/mL
MIC (Pseudomonas aeruginosa [4]): 8 µg/mL (≈ 23.4 µM)
MIC (Morganella morganii): 0.25 µg/mL (≈ 0.73 µM)
MIC [5, 14]: 1 µg/mL (≈ 2.92 µM)
MIC (Staphylococcus aureus [6]): ≤ 0.06 µg/mL
MIC (Escherichia coli [7]): ≤ 0.06 µg/mL
MIC (Escherichia coli [8]): ≤ 0.06 µg/mL
MIC [9]: > 128 µg/mL
MIC (Enterobacter cloacae): ≤ 0.06 µg/mL

C[C@@H](O)[C@H]1C(=O)N2C(C(=O)O)=C(SCCNC=N)C[C@H]12 [IMIPENEM ANHYDROUS]
MIC (Staphylococcus aureus [6]): ≤ 0.06 µg/mL
MIC (Escherichia coli [7]): ≤ 0.06 µg/mL
ED50 (Escherichia coli [10]; [15]): 0.67 mg/kg
ED50 (Escherichia coli [11]; [16]): 79 mg/kg
Relative hydrolysis (Sus scrofa): 100
MIC (Enterobacter cloacae): ≤ 0.06 µg/mL

C[C@@H](O)[C@H]1C(=O)N2C(C(=O)O)=C(S[C@@H]3CN[C@H](C(=O)N(C)C)C3)[C@H](C)[C@H]12 [MEROPENEM]
MIC (Escherichia coli [1]): ≤ 0.06 µg/mL
MIC (Citrobacter freundii): ≤ 0.06 µg/mL
MIC (Staphylococcus aureus [2]): 8 µg/mL (≈ 20.9 µM)
MIC (Pseudomonas aeruginosa [3]): 0.25 µg/mL (≈ 0.652 µM)
MIC (Enterococcus faecalis; [12]): 2 µg/mL (≈ 5.22 µM)
MIC (Enterococcus faecium; [13]): > 128 µg/mL
MIC (Pseudomonas aeruginosa [4]): 4 µg/mL (≈ 10.4 µM)
MIC (Morganella morganii): ≤ 0.06 µg/mL
MIC [5, 14]: 0.5 µg/mL (≈ 1.3 µM)
MIC (Staphylococcus aureus [6]): ≤ 0.06 µg/mL
MIC (Escherichia coli [7]): ≤ 0.06 µg/mL
MIC (Escherichia coli [8]): ≤ 0.06 µg/mL
MIC [9]: > 128 µg/mL
Relative hydrolysis (Sus scrofa): 28
MIC (Enterobacter cloacae): ≤ 0.06 µg/mL

C[C@H]1C(SC2COC(CN)C2)=C(C(=O)O)N2C(=O)[C@H]([C@@H](C)O)C12 (stereo in doubt; 3b) [listing 1 of 2 here]
MIC (Enterococcus faecalis): 2 µg/mL (≈ 5.84 µM)
MIC (Enterococcus faecium): 128 µg/mL (≈ 374 µM)
MIC [5]: 2 µg/mL (≈ 5.84 µM)
ED50 (Escherichia coli [10]): 0.28 mg/kg
ED50 (Escherichia coli [11]): 3.5 mg/kg

C[C@H]1C(S[C@@H]2COC[C@H]2CN)=C(C(=O)O)N2C(=O)[C@H]([C@@H](C)O)C12 (some centres undefined)
MIC (Escherichia coli [1]): 0.25 µg/mL (≈ 0.73 µM)
MIC (Citrobacter freundii): 1 µg/mL (≈ 2.92 µM)
MIC (Staphylococcus aureus [2]): 16 µg/mL (≈ 46.7 µM)
MIC (Pseudomonas aeruginosa [3]): 32 µg/mL (≈ 93.5 µM)
MIC (Enterococcus faecalis; [12]): 8 µg/mL (≈ 23.4 µM)
MIC (Enterococcus faecium; [13]): > 128 µg/mL
MIC (Pseudomonas aeruginosa [4]): 64 µg/mL (≈ 187 µM)
MIC (Morganella morganii): 4 µg/mL (≈ 11.7 µM)
MIC [5, 14]: 16 µg/mL (≈ 46.7 µM)
MIC (Staphylococcus aureus [6]): 0.12 µg/mL (≈ 0.35 µM)
MIC (Escherichia coli [7]): 0.25 µg/mL (≈ 0.73 µM)
MIC (Escherichia coli [8]): 0.25 µg/mL (≈ 0.73 µM)
MIC [9]: > 128 µg/mL
Relative hydrolysis (Sus scrofa): 39
MIC (Enterobacter cloacae): 0.25 µg/mL (≈ 0.73 µM)

C[C@H]1C(S[C@@H]2COC[C@@H]2CN)=C(C(=O)O)N2C(=O)[C@H]([C@@H](C)O)C12 (some centres undefined)
Relative hydrolysis (Sus scrofa): < 1

C[C@H]1C(S[C@H]2CCO[C@H]2CN)=C(C(=O)O)N2C(=O)[C@H]([C@@H](C)O)C12 (some centres undefined)
MIC (Escherichia coli [1]): 0.5 µg/mL (≈ 1.46 µM)
MIC (Citrobacter freundii): 0.5 µg/mL (≈ 1.46 µM)
MIC (Staphylococcus aureus [2]): 8 µg/mL (≈ 23.4 µM)
MIC (Pseudomonas aeruginosa [3]): 4 µg/mL (≈ 11.7 µM)
MIC (Enterococcus faecalis; [12]): 4 µg/mL (≈ 11.7 µM)
MIC (Enterococcus faecium; [13]): 128 µg/mL (≈ 374 µM)
MIC (Pseudomonas aeruginosa [4]): 16 µg/mL (≈ 46.7 µM)
MIC (Morganella morganii): 2 µg/mL (≈ 5.84 µM)
MIC [5, 14]: 4 µg/mL (≈ 11.7 µM)
MIC (Staphylococcus aureus [6]): 0.12 µg/mL (≈ 0.35 µM)
MIC (Escherichia coli [7]): 0.5 µg/mL (≈ 1.46 µM)
MIC (Escherichia coli [8]): 0.5 µg/mL (≈ 1.46 µM)
MIC [9]: > 128 µg/mL
Relative hydrolysis (Sus scrofa): 4.5
MIC (Enterobacter cloacae): 0.25 µg/mL (≈ 0.73 µM)

C[C@H]1C(S[C@H]2CCO[C@@H]2CN)=C(C(=O)O)N2C(=O)[C@H]([C@@H](C)O)C12 (some centres undefined)
MIC (Escherichia coli [1]): 0.25 µg/mL (≈ 0.73 µM)
MIC (Citrobacter freundii): 1 µg/mL (≈ 2.92 µM)
MIC (Staphylococcus aureus [2]): 4 µg/mL (≈ 11.7 µM)
MIC (Pseudomonas aeruginosa [3]): 16 µg/mL (≈ 46.7 µM)
MIC (Enterococcus faecalis; [12]): 8 µg/mL (≈ 23.4 µM)
MIC (Enterococcus faecium; [13]): > 64 µg/mL
MIC (Pseudomonas aeruginosa [4]): 32 µg/mL (≈ 93.5 µM)
MIC (Morganella morganii): 2 µg/mL (≈ 5.84 µM)
MIC (Staphylococcus aureus [6]): 0.06 µg/mL (≈ 0.175 µM)
MIC (Escherichia coli [7]): 0.5 µg/mL (≈ 1.46 µM)
MIC (Escherichia coli [8]): 0.5 µg/mL (≈ 1.46 µM)
MIC [9]: > 64 µg/mL
Relative hydrolysis (Sus scrofa): 18
MIC (Enterobacter cloacae): 0.5 µg/mL (≈ 1.46 µM)

C[C@H]1C(S[C@H]2CO[C@@H](CN)C2)=C(C(=O)O)N2C(=O)[C@H]([C@@H](C)O)C12 (some centres undefined)
MIC (Escherichia coli [1]): ≤ 0.06 µg/mL
MIC (Citrobacter freundii): 0.12 µg/mL (≈ 0.35 µM)
MIC (Staphylococcus aureus [2]): 8 µg/mL (≈ 23.4 µM)
MIC (Pseudomonas aeruginosa [3]): 16 µg/mL (≈ 46.7 µM)
MIC (Enterococcus faecalis; [12]): 4 µg/mL (≈ 11.7 µM)
MIC (Enterococcus faecium; [13]): > 128 µg/mL
MIC (Pseudomonas aeruginosa [4]): 32 µg/mL (≈ 93.5 µM)
MIC (Morganella morganii): 0.5 µg/mL (≈ 1.46 µM)
MIC [5, 14]: 2 µg/mL (≈ 5.84 µM)
MIC (Staphylococcus aureus [6]): ≤ 0.06 µg/mL
MIC (Escherichia coli [7]): ≤ 0.06 µg/mL
MIC (Escherichia coli [8]): ≤ 0.06 µg/mL
MIC [9]: > 128 µg/mL
Relative hydrolysis (Sus scrofa): 10
MIC (Enterobacter cloacae): ≤ 0.06 µg/mL

C[C@H]1C(SC2COC(CN)C2)=C(C(=O)O)N2C(=O)[C@H]([C@@H](C)O)C12 (stereo in doubt; 3a) [listing 1 of 2 here]
MIC (Escherichia coli [1]): ≤ 0.06 µg/mL
MIC (Citrobacter freundii): ≤ 0.06 µg/mL
MIC [5, 14]: 1 µg/mL (≈ 2.92 µM)
MIC (Staphylococcus aureus [6]): ≤ 0.06 µg/mL
MIC (Escherichia coli [7]): ≤ 0.06 µg/mL
ED50 (Escherichia coli [10]; [15]): 0.27 mg/kg
MIC (Escherichia coli [8]): ≤ 0.06 µg/mL
ED50 (Escherichia coli [11]; [16]): 3.7 mg/kg
MIC (Enterobacter cloacae): ≤ 0.06 µg/mL

C[C@H]1C(S[C@H]2COC[C@@H]2CN)=C(C(=O)O)N2C(=O)[C@H]([C@@H](C)O)C12 (some centres undefined)
MIC (Escherichia coli [1]): 0.5 µg/mL (≈ 1.46 µM)
MIC (Citrobacter freundii): 1 µg/mL (≈ 2.92 µM)
MIC (Staphylococcus aureus [2]): 16 µg/mL (≈ 46.7 µM)
MIC (Pseudomonas aeruginosa [3]): 16 µg/mL (≈ 46.7 µM)
MIC (Enterococcus faecalis; [12]): 8 µg/mL (≈ 23.4 µM)
MIC (Enterococcus faecium; [13]): > 128 µg/mL
MIC (Pseudomonas aeruginosa [4]): 64 µg/mL (≈ 187 µM)
MIC (Morganella morganii): 4 µg/mL (≈ 11.7 µM)
MIC [5, 14]: 8 µg/mL (≈ 23.4 µM)
MIC (Staphylococcus aureus [6]): 0.12 µg/mL (≈ 0.35 µM)
MIC (Escherichia coli [7]): 0.5 µg/mL (≈ 1.46 µM)
MIC (Escherichia coli [8]): 0.5 µg/mL (≈ 1.46 µM)
MIC [9]: > 128 µg/mL
Relative hydrolysis (Sus scrofa): 37
MIC (Enterobacter cloacae): 0.5 µg/mL (≈ 1.46 µM)

C[C@H]1C(S[C@@H]2CO[C@H](CN)C2)=C(C(=O)O)N2C(=O)[C@H]([C@@H](C)O)C12 (some centres undefined)
MIC (Escherichia coli [1]): 0.12 µg/mL (≈ 0.35 µM)
MIC (Citrobacter freundii): 0.12 µg/mL (≈ 0.35 µM)
MIC (Staphylococcus aureus [2]): 4 µg/mL (≈ 11.7 µM)
MIC (Pseudomonas aeruginosa [3]): 8 µg/mL (≈ 23.4 µM)
MIC (Enterococcus faecalis; [12]): 4 µg/mL (≈ 11.7 µM)
MIC (Enterococcus faecium; [13]): 128 µg/mL (≈ 374 µM)
MIC (Pseudomonas aeruginosa [4]): 16 µg/mL (≈ 46.7 µM)
MIC (Morganella morganii): 0.5 µg/mL (≈ 1.46 µM)
MIC [5, 14]: 2 µg/mL (≈ 5.84 µM)
MIC (Staphylococcus aureus [6]): ≤ 0.06 µg/mL
MIC (Escherichia coli [7]): ≤ 0.06 µg/mL
MIC (Escherichia coli [8]): ≤ 0.06 µg/mL
MIC [9]: > 128 µg/mL
Relative hydrolysis (Sus scrofa): 7.3
MIC (Enterobacter cloacae): ≤ 0.06 µg/mL

C[C@H]1C(SC2COC(CN)C2)=C(C(=O)O)N2C(=O)[C@H]([C@@H](C)O)C12 (stereo in doubt; 3b) [listing 2 of 2 here]
Relative hydrolysis (Sus scrofa): 10

C[C@H]1C(S[C@H]2COC[C@H]2CN)=C(C(=O)O)N2C(=O)[C@H]([C@@H](C)O)C12 (some centres undefined)
MIC (Staphylococcus aureus [6]): ≤ 0.06 µg/mL
MIC (Escherichia coli [7]): ≤ 0.06 µg/mL
MIC (Escherichia coli [8]): ≤ 0.06 µg/mL
Relative hydrolysis (Sus scrofa): < 1
MIC (Enterobacter cloacae): ≤ 0.06 µg/mL

C[C@H]1C(SC2COC(CN)C2)=C(C(=O)O)N2C(=O)[C@H]([C@@H](C)O)C12 (stereo in doubt; 3a) [listing 2 of 2 here]
Relative hydrolysis (Sus scrofa): 19

C[C@@H](O)[C@H]1C(=O)N2C(C(=O)O)=C(S[C@@H]3CCO[C@@H]3CN)[C@H](C)[C@H]12
ED50 (Escherichia coli [10]; [15]): 0.34 mg/kg
ED50 (Escherichia coli [11]; [16]): 3.8 mg/kg
Relative hydrolysis (Sus scrofa): 8.5
